Consider eight compounds from ChEMBL document CHEMBL1201862, “PubChem BioAssay data set” (2004).

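These data come from cells grown in 96-well plates and exposed to compound for 48 hours at five concentrations. The concentration for 50% growth inhibition is given as GI50.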 Active and inactive are the calls of the source. Cut-off read from the data, not from the text of the source: active = GI50 up to about 1.1 µM and inactive = higher.

Assay in all cases: NCI anticancer screen, dose series, 48 h
Assay [1] deals with COLO 205.
The test system of assay [2] is DU-145.
The subject of assay [3] is OVCAR-4.
Assay [4] relates to SW-620.
For assay [5], the system named is RXF 393.
In assay [6] the test system is HL-60.
Assay [7] has as its system SNB-75.
The test system of assay [8] is 786-0.
The subject of assay [9] is CCRF-CEM.
For assay [10], the system named is Hs-578T.
Assay [11] concerns Malme-3M.
Assay [12] deals with UACC-62.
In assay [13] the test system is SF-268.
Assay [14] relates to SK-OV-3.
Assay [15] relates to SF-539.
The test system of assay [16] is OVCAR-5.
Assay [17] concerns LOX IMVI.
Assay [18] concerns K562.
The test system of assay [19] is SR.
Assay [20] deals with MOLT-4.

In the case of `C#C[C@]1(O)CC[C@H]2[C@@H]3CCC4=C/C(=N/OC(=O)c5cccc6c(=O)c7ccccc7[nH]c56)CC[C@@H]4[C@H]3CC[C@@]21C`, the GI50 was 24.4 µM (inactive) in [1]; 61.9 µM (inactive) in [2]; > 100 µM (inactive) in assay [3]; 56.2 µM (inactive) in assay [4]; > 100 µM (inactive) in assay [5]; 17.4 µM (inactive) in assay [6]. Further, the GI50 in assay [7] is 97.7 µM (inactive); in assay [8] it was > 100 µM (inactive); in assay [9], 14.4 µM (inactive); in [10], 54.1 µM (inactive); in assay [11] it was 45 µM (inactive); in assay [12], 35.6 µM (inactive). The GI50 in assay [13] is 80 µM (inactive); in assay [14], > 100 µM (inactive); in [15] it was 29.5 µM (inactive); in [16], > 100 µM (inactive); in [17], 34 µM (inactive); in assay [18] it was 17.3 µM (inactive). Further, the GI50 in assay [19] is 12.1 µM (inactive); in [20], 16.2 µM (inactive).

On to `CC1=C(C)C(=O)C(C2=C(C3=CC(=O)C(C)=C(C)C3=O)C(=O)c3ccccc3C2=O)=CC1=O`, for which the GI50 in [1] was 0.863 µM (active); in [2] it was 2.95 µM (inactive); in assay [3], 1.7 µM (inactive); in [4] it was 1.82 µM (inactive); in [5], 1.71 µM (inactive); in assay [6] it was 0.255 µM (active). Also, the GI50 in assay [7] was 9.79 µM (inactive); in assay [8], 1.88 µM (inactive); in [9], 0.619 µM (active); in assay [10], 5.93 µM (inactive); in [11], 1.12 µM (active); in [12], 2.51 µM (inactive). Also, the GI50 in assay [13] is 3.26 µM (inactive); in assay [14], 16.5 µM (inactive); in assay [15], 2.36 µM (inactive); in assay [16], 13 µM (inactive); in [17], 2.41 µM (inactive); in assay [18] it was 2.77 µM (inactive). Also, the values for the GI50 in assay [19] and in assay [20] were 1.47 µM (inactive) and 1.41 µM (inactive), respectively.

On to `O=C(O)c1cc2c(cc1CC(Cc1ccc3c(c1)CCCC3)C(=O)O)CCCC2` (stereo not given), for which the GI50 is > 100 µM (inactive) in assay [1]; > 100 µM (inactive) in assay [2]; < 0.01 µM (active) in assay [3]; > 100 µM (inactive) in assay [4]; 41.5 µM (inactive) in assay [5]; 99.8 µM (inactive) in assay [6]. Further, the GI50 in [7] is > 100 µM (inactive); in assay [8] it was > 100 µM (inactive); in assay [9] it was 67.5 µM (inactive); in assay [10] it was 90.6 µM (inactive); in assay [11], > 100 µM (inactive); in assay [12], > 100 µM (inactive). In addition, the GI50 in assay [13] is 39.4 µM (inactive); in assay [14], > 100 µM (inactive); in assay [15], 34.4 µM (inactive); in assay [16] it was > 100 µM (inactive); in assay [17], 94.4 µM (inactive); in assay [18], > 100 µM (inactive). The GI50 in [19] is > 100 µM (inactive); in assay [20], 59.8 µM (inactive).

On to `COc1cc(OC)c2nc(C)c(CCCl)c(Cl)c2c1`, for which the GI50 in assay [1], in assay [2], in [3], in [4], in assay [5] and in [6] was > 100 µM (inactive) throughout. The GI50 in [7], in [8], in [9], in assay [10], in [11] and in assay [12] was > 100 µM (inactive) each time. For the same compound, the GI50 in assay [13], in assay [14], in assay [15], in assay [16], in assay [17] and in [18] was > 100 µM (inactive) in each case. Further, the GI50 in assay [19] and in assay [20] was > 100 µM (inactive) each time.

Consider `O=[N+]([O-])c1cc(/C=N/C23CC4CC(CC(C4)C2)C3)ccc1Cl`, for which the GI50 in assay [1] was 42.6 µM (inactive); in [2], 27.8 µM (inactive); in assay [3] it was 19.5 µM (inactive); in assay [4] it was 13 µM (inactive); in [5], 19.2 µM (inactive); in [6], 3.03 µM (inactive). Besides, the GI50 is 36.2 µM (inactive) in assay [7]; 19.8 µM (inactive) in [8]; 2.82 µM (inactive) in assay [9]; 38.8 µM (inactive) in [10]; 20.9 µM (inactive) in assay [11]; 14.3 µM (inactive) in assay [12]. Further, the GI50 in assay [13] is 28.7 µM (inactive); in [14], 18.4 µM (inactive); in assay [15], 22.9 µM (inactive); in assay [16] it was 34 µM (inactive); in [17], 19 µM (inactive); in assay [18] it was 4.42 µM (inactive). For the same compound, the GI50 in [19] was 4.37 µM (inactive); in [20], 8.73 µM (inactive).

For the compound `O=c1cc(-c2ccccc2)oc2c1ccc1nc3ccccc3c(O)c12`, the GI50 in assay [1] is > 100 µM (inactive); in assay [2], 61.2 µM (inactive); in assay [3], 34.8 µM (inactive); in assay [4], > 100 µM (inactive); in assay [5] it was 31.6 µM (inactive); in [6], 59.7 µM (inactive). Also, the GI50 was 34.9 µM (inactive) in assay [7]; 42 µM (inactive) in [8]; 54.6 µM (inactive) in [9]; 59.4 µM (inactive) in [10]; > 100 µM (inactive) in assay [11]; 67.1 µM (inactive) in [12]. Also, the GI50 in assay [13] was 39.8 µM (inactive); in assay [14] it was 43.7 µM (inactive); in [15] it was 33 µM (inactive); in assay [16], > 100 µM (inactive); in [17], 12.5 µM (inactive); in [18], > 100 µM (inactive). Further, the GI50 is 40.7 µM (inactive) in [19] and 57.4 µM (inactive) in assay [20].

Turning to `Nc1ccn(CC(O)c2cc3ccccc3[nH]2)c(=O)n1` (stereo not given), the GI50 in assay [1], in assay [2], in assay [3], in [4], in [5] and in assay [6] was > 100 µM (inactive) in each case. For the same compound, the GI50 in assay [7], in assay [8], in [9], in assay [10], in assay [11] and in assay [12] was > 100 µM (inactive) throughout. Moreover, the GI50 in assay [13], in assay [14], in assay [15], in [16], in [17] and in assay [18] was > 100 µM (inactive) throughout. For the same compound, the GI50 in assay [19] and in assay [20] was > 100 µM (inactive) throughout.

`Cn1c(=O)c2[nH]c(C3CC(=O)CC(c4nc5c([nH]4)c(=O)n(C)c(=O)n5C)N3)nc2n(C)c1=O` (stereo not given): the GI50 in assay [1] was 97.7 µM (inactive); in [2] it was > 100 µM (inactive); in [3] it was > 100 µM (inactive); in assay [4], > 100 µM (inactive); in assay [5] it was > 100 µM (inactive); in assay [6], > 100 µM (inactive). Besides, the GI50 was > 100 µM (inactive) in assay [7]; > 100 µM (inactive) in [8]; 38.3 µM (inactive) in assay [9]; > 100 µM (inactive) in [10]; > 100 µM (inactive) in assay [11]; > 100 µM (inactive) in assay [12]. Further, the GI50 in assay [13] is > 100 µM (inactive); in [14] it was > 100 µM (inactive); in [15], > 100 µM (inactive); in assay [16] it was > 100 µM (inactive); in [17], > 100 µM (inactive); in assay [18] it was 72.8 µM (inactive). In addition, the GI50 in [19] was 95.1 µM (inactive); in assay [20], 71.3 µM (inactive).
